From ChEMBL document CHEMBL1201862, “PubChem BioAssay data set” (2004)
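1) Cells in 96-well plates. 2) Compound, 48 h, 5 concentrations. 3) Linear interpolation between surrounding doses. 4) Unreached endpoint = highest concentration. GI50 marks 50% less growth.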 The source made the active and inactive calls. Cut-off read from the data, not from the text of the source: active = GI50 up to about 1.1 µM and inactive = higher.

What was measured:
Experiment in all cases: NCI anticancer screen, dose series, 48 h
786-0 = tested on: 786-0
A549 = tested on: A549
CAKI-1 = tested on: CAKI-1
HCC 2998 = tested on: HCC 2998
HOP-92 = tested on: HOP-92
HT-29 = tested on: HT-29
M14 = tested on: M14
MDA-MB-231 = tested on: MDA-MB-231
NCI-H226 = tested on: NCI-H226
NCI-H460 = tested on: NCI-H460
OVCAR-5 = tested on: OVCAR-5
PC-3 = tested on: PC-3
RPMI-8226 = tested on: RPMI-8226
SF-268 = tested on: SF-268
SK-MEL-5 = tested on: SK-MEL-5
SK-OV-3 = tested on: SK-OV-3
SN12C = tested on: SN12C
T47D = tested on: T47D
UACC-257 = tested on: UACC-257
UACC-62 = tested on: UACC-62

Row | SMILES | GI50 (786-0) | GI50 (A549) | GI50 (CAKI-1) | GI50 (HCC 2998) | GI50 (HOP-92) | GI50 (HT-29) | GI50 (M14) | GI50 (MDA-MB-231) | GI50 (NCI-H226) | GI50 (NCI-H460) | GI50 (OVCAR-5) | GI50 (PC-3) | GI50 (RPMI-8226) | GI50 (SF-268) | GI50 (SK-MEL-5) | GI50 (SK-OV-3) | GI50 (SN12C) | GI50 (T47D) | GI50 (UACC-257) | GI50 (UACC-62)
1 | Oc1ccc2ccccc2c1/C=C/c1ccc2c(Br)cc(Br)c(O)c2n1 | 5.2 µM (inactive) | 4.74 µM (inactive) | 11 µM (inactive) | 6.97 µM (inactive) | 11.5 µM (inactive) | 9.73 µM (inactive) | 7.38 µM (inactive) | 5.58 µM (inactive) | 5.02 µM (inactive) | 1.75 µM (inactive) | 7.76 µM (inactive) | 4.57 µM (inactive) | 4.06 µM (inactive) | 5.87 µM (inactive) | 3.36 µM (inactive) | 9.4 µM (inactive) | 5.04 µM (inactive) | 11.6 µM (inactive) | 8.49 µM (inactive) | 6.01 µM (inactive)
2 | C=C1C(=O)O[C@@H]2C=C(C)C3=CC(=O)[C@](C)(C[C@H](OC(=O)/C(C)=C\C)[C@@H]12)O3 | 0.374 µM (active) | 1.73 µM (inactive) | 0.509 µM (active) | 1.51 µM (inactive) | 0.671 µM (active) | 0.647 µM (active) | 0.644 µM (active) | 0.759 µM (active) | 2.28 µM (inactive) | 2.18 µM (inactive) | 1.97 µM (inactive) | 1.51 µM (inactive) | 0.2 µM (active) | 3.12 µM (inactive) | 0.542 µM (active) | 4.05 µM (inactive) | 1.92 µM (inactive) | 0.916 µM (active) | 2.14 µM (inactive) | 0.508 µM (active)
3 | O=C1C=C2CCC[C@H]3OC(=O)C[C@@]23CC1 | > 100 µM (inactive) | > 100 µM (inactive) | > 100 µM (inactive) | > 100 µM (inactive) | > 100 µM (inactive) | > 100 µM (inactive) | > 100 µM (inactive) | > 100 µM (inactive) | > 100 µM (inactive) | > 100 µM (inactive) | > 100 µM (inactive) | > 100 µM (inactive) | > 100 µM (inactive) | > 100 µM (inactive) | > 100 µM (inactive) | > 100 µM (inactive) | > 100 µM (inactive) | > 100 µM (inactive) | > 100 µM (inactive) | > 100 µM (inactive)
4 | COc1ccccc1NC(=S)NN=C(C)c1cccc(C(C)=NNC(=S)Nc2ccccc2OC)n1 | 6.64 µM (inactive) | 29.2 µM (inactive) | 82.2 µM (inactive) | > 100 µM (inactive) | 21.7 µM (inactive) | 18 µM (inactive) | 5.06 µM (inactive) | 5.16 µM (inactive) | 28.4 µM (inactive) | 24 µM (inactive) | > 100 µM (inactive) | 27 µM (inactive) | 24.6 µM (inactive) | 15.9 µM (inactive) | 3.94 µM (inactive) | 99.8 µM (inactive) | 30 µM (inactive) | > 100 µM (inactive) | 25.8 µM (inactive) | 20.5 µM (inactive)
5 | O=C1c2ccccc2NC2C(O)c3ccccc3N12 (stereo not given) | > 100 µM (inactive) | 10.9 µM (inactive) | 34.8 µM (inactive) | 42.9 µM (inactive) | > 100 µM (inactive) | 60 µM (inactive) | 81.3 µM (inactive) | > 100 µM (inactive) | > 100 µM (inactive) | 13.2 µM (inactive) | 82.2 µM (inactive) | 35.4 µM (inactive) | 10.1 µM (inactive) | > 100 µM (inactive) | 52.7 µM (inactive) | > 100 µM (inactive) | 94.4 µM (inactive) | 6.5 µM (inactive) | 15.3 µM (inactive) | 23.6 µM (inactive)
6 | COc1cccc(/N=N/C(=N/NC(=O)c2ccc(C)cc2)c2ccc(N(CCC#N)CCC#N)cc2OC)c1 | > 100 µM (inactive) | > 100 µM (inactive) | > 100 µM (inactive) | 8.28 µM (inactive) | > 100 µM (inactive) | 21.2 µM (inactive) | > 100 µM (inactive) | > 100 µM (inactive) | > 100 µM (inactive) | 3.76 µM (inactive) | 24.4 µM (inactive) | > 100 µM (inactive) | > 100 µM (inactive) | > 100 µM (inactive) | > 100 µM (inactive) | > 100 µM (inactive) | > 100 µM (inactive) | > 100 µM (inactive) | 7.14 µM (inactive) | > 100 µM (inactive)
